Experimental data taken from PubChem BioAssay AID256 (DTP/NCI, 2004).
Toxic doses and inconclusive results are not listed. The calls were made as follows: active = survival T/C of 150% or more; inactive = T/C below 125% in these data.

Tested on: CD2F1 mice, L1210 leukemia ip, survival T/C
Test: NCI In Vivo Anticancer Drug Screen. Data for tumor model L1210 Leukemia (intraperitoneal) in CD2F1 (CDF1) mice
Conditions: higher = longer survival
Procedure, shortened: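 Transplantable tumor in mice; compound-treated vs vehicle-treated groups. Read-out = treated/control ratio of the measured endpoint.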

[1] = endpoint: mean survival time, dose: 100.0 mg/kg/injection, schedule: Q04DX003 (ip), vehicle: saline with Tween-80
[2] = endpoint: mean survival time, dose: 200.0 mg/kg/injection, schedule: Q04DX003 (ip), vehicle: saline with Tween-80
[3] = endpoint: mean survival time, dose: 400.0 mg/kg/injection, schedule: Q04DX003 (ip), vehicle: saline with Tween-80
[4] = endpoint: mean survival time, dose: 100.0 mg/kg/injection, schedule: Q01DX001 (ip), vehicle: saline with Tween-80
[5] = endpoint: mean survival time, dose: 200.0 mg/kg/injection, schedule: Q01DX001 (ip), vehicle: saline with Tween-80
[6] = endpoint: mean survival time, dose: 400.0 mg/kg/injection, schedule: Q01DX001 (ip), vehicle: saline with Tween-80
[7] = endpoint: mean survival time, dose: 3.13 mg/kg/injection, schedule: Q04DX003 (ip), vehicle: water
[8] = endpoint: mean survival time, dose: 6.25 mg/kg/injection, schedule: Q04DX003 (ip), vehicle: water
[9] = endpoint: mean survival time, dose: 12.5 mg/kg/injection, schedule: Q04DX003 (ip), vehicle: water
[10] = endpoint: mean survival time, dose: 25.0 mg/kg/injection, schedule: Q04DX003 (ip), vehicle: water
[11] = endpoint: mean survival time, dose: 50.0 mg/kg/injection, schedule: Q04DX003 (ip), vehicle: water

Measured: T/C

[Br][OsH].[C-]#[O+].c1ccc([PH+](c2ccccc2)c2ccccc2)cc1.c1ccc([PH+](c2ccccc2)c2ccccc2)cc1.c1ccc([PH+](c2ccccc2)c2ccccc2)cc1
inactive: endpoint: mean survival time, dose: 100.0 mg/kg/injection, schedule: Q04DX002 (ip), vehicle: saline with Tween-80 91 % of control | endpoint: mean survival time, dose: 200.0 mg/kg/injection, schedule: Q04DX002 (ip), vehicle: saline with Tween-80 87 % of control | endpoint: mean survival time, dose: 400.0 mg/kg/injection, schedule: Q04DX002 (ip), vehicle: saline with Tween-80 87 % of control

O=C1c2ccccc2C2c3[nH]c4ccccc4c3CCN12 (centres undefined)
inactive: endpoint: mean survival time, dose: 100.0 mg/kg/injection, schedule: Q01DX009 (ip), vehicle: saline sonified 97 % of control | [1] 87 % of control | endpoint: mean survival time, dose: 200.0 mg/kg/injection, schedule: Q01DX009 (ip), vehicle: saline sonified 96 % of control | [2] 95 % of control | endpoint: mean survival time, dose: 400.0 mg/kg/injection, schedule: Q01DX009 (ip), vehicle: saline sonified 97 % of control | [3] 93 % of control

CCC(=O)NC1CCCCC1
inactive: [4] 95 % of control | [5] 101 % of control | [6] 102 % of control

CCOC(=O)c1c[nH]n(C2OC(CO)C(O)C2O)c1=O (centres undefined)
inactive: endpoint: median survival time, dose: 45.5 mg/kg/injection, schedule: Q01DX005 (ip), vehicle: saline 96 % of control | endpoint: median survival time, dose: 90.9 mg/kg/injection, schedule: Q01DX005 (ip), vehicle: saline 96 % of control | endpoint: median survival time, dose: 181.9 mg/kg/injection, schedule: Q01DX005 (ip), vehicle: saline 98 % of control

[NH-]C(CO)C(=O)O.[NH-]C(CO)C(=O)O.[Pt+2] (centres undefined)
inactive: endpoint: mean survival time, dose: 0.78 mg/kg/injection, schedule: Q04DX003 (ip), vehicle: saline with Tween-80 100 % of control | endpoint: mean survival time, dose: 1.56 mg/kg/injection, schedule: Q04DX003 (ip), vehicle: saline with Tween-80 92 % of control | endpoint: mean survival time, dose: 3.13 mg/kg/injection, schedule: Q04DX003 (ip), vehicle: saline with Tween-80 95 % of control | [7] 100 % of control | endpoint: mean survival time, dose: 6.25 mg/kg/injection, schedule: Q04DX003 (ip), vehicle: saline with Tween-80 97 % of control | endpoint: mean survival time, dose: 6.25 mg/kg/injection, schedule: Q04DX003 (ip), vehicle: saline 102 % of control | [8] 103 % of control | endpoint: mean survival time, dose: 12.5 mg/kg/injection, schedule: Q04DX003 (ip), vehicle: saline with Tween-80 94 % of control | endpoint: mean survival time, dose: 12.5 mg/kg/injection, schedule: Q04DX003 (ip), vehicle: saline 103 % of control | [9] 101 % of control | endpoint: mean survival time, dose: 25.0 mg/kg/injection, schedule: Q04DX003 (ip), vehicle: saline 100 % of control | [10] 91 % of control | endpoint: mean survival time, dose: 50.0 mg/kg/injection, schedule: Q04DX003 (ip), vehicle: saline 103 % of control | [11] 94 % of control | endpoint: mean survival time, dose: 100.0 mg/kg/injection, schedule: Q04DX003 (ip), vehicle: saline 103 % of control | endpoint: mean survival time, dose: 100.0 mg/kg/injection, schedule: Q04DX003 (ip), vehicle: water 88 % of control | endpoint: mean survival time, dose: 200.0 mg/kg/injection, schedule: Q04DX003 (ip), vehicle: saline 86 % of control | endpoint: mean survival time, dose: 200.0 mg/kg/injection, schedule: Q04DX003 (ip), vehicle: water 88 % of control

COc1cc(/C=N/N2CCCCC2)cc(OC)c1OC
inactive: [1] 104 % of control | [2] 95 % of control | [3] 111 % of control

CCN(CC)Cc1ccc([NH-])c([NH-])c1.CCN(CC)Cc1ccc([NH-])c([NH-])c1.[Cl][Pt+2][Cl].[Cl][Pt+2][Cl].[Cl][Pt+2][Cl]
inactive: [7] 103 % of control | [8] 108 % of control | [9] 110 % of control | [10] 119 % of control | [11] 89 % of control

N/C(=N\O)c1cn(C2OC(CO)C(O)C2O)c2ncnc(N)c12 (centres undefined)
inactive: endpoint: mean survival time, dose: 8.0 mg/kg/injection, schedule: Q01DX007 (ip), vehicle: saline 111 % of control

C/C=C/CNc1ccc(C)cc1
inactive: endpoint: mean survival time, dose: 66.0 mg/kg/injection, schedule: Q01DX009 (ip), vehicle: saline with Tween-80 98 % of control | endpoint: mean survival time, dose: 100.0 mg/kg/injection, schedule: Q01DX009 (ip), vehicle: saline with Tween-80 100 % of control | [1] 103 % of control | endpoint: mean survival time, dose: 150.0 mg/kg/injection, schedule: Q01DX009 (ip), vehicle: saline with Tween-80 102 % of control

COC1OC2COC(c3ccccc3)OC2C2NC(N)(N[N+](=O)[O-])C12O (centres undefined)
inactive: [4] 91 % of control | [5] 88 % of control | [6] 94 % of control

CC1/C=C/C=C/CC/C=C/C=C/C=C/C=C/C(OC2OC(C)C(O)C(N)C2O)CC2OC(CC(O)C(O)CCC(O)CC(O)CC(O)CC(=O)OC(C)C(C)C1O)CC(O)C2C(=O)O (centres undefined)
inactive: endpoint: mean survival time, dose: 9.5 mg/kg/injection, schedule: Q01DX009 (ip), vehicle: saline sonified 95 % of control | endpoint: mean survival time, dose: 9.5 mg/kg/injection, schedule: Q04DX003 (ip), vehicle: saline sonified 98 % of control | endpoint: mean survival time, dose: 19.0 mg/kg/injection, schedule: Q01DX009 (ip), vehicle: saline sonified 93 % of control | endpoint: mean survival time, dose: 19.0 mg/kg/injection, schedule: Q04DX003 (ip), vehicle: saline sonified 92 % of control | endpoint: mean survival time, dose: 38.0 mg/kg/injection, schedule: Q01DX009 (ip), vehicle: saline sonified 87 % of control | endpoint: mean survival time, dose: 38.0 mg/kg/injection, schedule: Q04DX003 (ip), vehicle: saline sonified 100 % of control | endpoint: median survival time, dose: 6.25 mg/kg/injection, schedule: Q01DX009 (ip), vehicle: saline with Tween-80 100 % of control | endpoint: median survival time, dose: 12.5 mg/kg/injection, schedule: Q01DX009 (ip), vehicle: saline with Tween-80 100 % of control | endpoint: median survival time, dose: 25.0 mg/kg/injection, schedule: Q01DX009 (ip), vehicle: saline with Tween-80 102 % of control | endpoint: median survival time, dose: 50.0 mg/kg/injection, schedule: Q01DX009 (ip), vehicle: saline with Tween-80 101 % of control | endpoint: median survival time, dose: 100.0 mg/kg/injection, schedule: Q01DX009 (ip), vehicle: saline with Tween-80 100 % of control

CS(=O)(=O)OC1CCS(=O)(=O)c2ccccc21 (centres undefined)
inactive: endpoint: mean survival time, dose: 100.0 mg/kg/injection, schedule: Q01DX001 (ip), vehicle: carboxymethylcellulose (CMC) 97 % of control | endpoint: mean survival time, dose: 200.0 mg/kg/injection, schedule: Q01DX001 (ip), vehicle: carboxymethylcellulose (CMC) 97 % of control | endpoint: mean survival time, dose: 400.0 mg/kg/injection, schedule: Q01DX001 (ip), vehicle: carboxymethylcellulose (CMC) 97 % of control

COC(=O)C(C#N)=C(C)C
inactive: endpoint: mean survival time, dose: 10.0 mg/kg/injection, schedule: Q01DX009 (ip), vehicle: saline with Tween-80 110 % of control | endpoint: mean survival time, dose: 10.0 mg/kg/injection, schedule: Q04DX003 (ip), vehicle: saline 96 % of control | endpoint: mean survival time, dose: 20.0 mg/kg/injection, schedule: Q01DX009 (ip), vehicle: saline with Tween-80 101 % of control | endpoint: mean survival time, dose: 20.0 mg/kg/injection, schedule: Q04DX003 (ip), vehicle: saline 96 % of control | endpoint: mean survival time, dose: 40.0 mg/kg/injection, schedule: Q01DX009 (ip), vehicle: saline with Tween-80 104 % of control | endpoint: mean survival time, dose: 40.0 mg/kg/injection, schedule: Q04DX003 (ip), vehicle: saline 96 % of control
